Assays:
[1] = test system: chronic renal failure secondary to primary nephropathy; test: Prospective, open label, 12-month clinical trial in patients with primary nephropathy with renal damage; format: in vivo, human; conditions: oral sustained-release tablets every 12 hours, 12 months
Description: The present study is a prospective, open label, 12-month clinical trial including 30 patients with primary nephropathy, with renal damage (stages 1 to 4 of the KDIGO Classification) between 10 and 40 years of age, from both sexes. […] Said evaluation phase was useful so that the patient could become his/her own control. All of the patients received oral Pirfenidone (in sustained-release tablet form) administered every 12 hours containing 2400 mg/1.73 m^2 BSA, equivalent to […].; besides, they also received a conventional treatment appropriate for primary nephropathy and CRF, such as antihypertensives, alpha-ketoanalogues, phosphate chelating agents, angiotensin II antagonist, low-protein diet, etc. […] Two Doppler ultrasonographic studies were performed on each patient at the beginning of the study and at 12 months. Drug adverse events were evaluated and the loss of renal function and loss percentage were quantified. The use of Pirfenidone in renal function was monitored through cystatin C, plasma reciprocal creatinine and creatinine clearance in 24-hour urine collection.

[2] = test system: progressive renal disease; conditions: animal models; cited from earlier work
[3] = Pirfenidone bioavailability study in healthy volunteers; format: in vivo, human; conditions: 600 mg sustained-release tablet form; 11 healthy volunteers
Description: Pirfenidone Bioavailability Study in Healthy Volunteers According to the Pharmacopoeia Standards
Said analyses were performed by a laboratory authorized by the Mexican Health Secretariat (Data not shown).
Maximum concentration data evidenced that the bioavailability is extrapolated to other lower concentrations, i.e., 100, 200 or 400 mg.

[4] = test system: focal segmental glomerulosclerosis; conditions: nephrotic syndrome and focal segmental glomerulosclerosis; cited from earlier work
TNF-α [5] = test: TNF-α serum levels in female rats with silicone implants in mammary glands (ELISA); format: in vivo; conditions: daily oral regimen during 21 days; extended release formula before conversion into tablets
Description: TNF-α serum levels determination in female rats submitted to the placement of silicone implants in mammary glands for inducing contracture development are shown in FIG. 6. The animals administered a daily regimen of oral Pirfenidone during 21 days. […] TNF-α levels were determined through a commercial ELISA kit.

[6] = test system: breast capsular contracture; test: Pilot open prospective study in patients with breast capsular contracture (Baker scale, echosonography); format: in vivo, human; conditions: for Implant fibrous capsule ILQ thickness, mean: Inner Lower Quadrant; for Implant fibrous capsule IUQ thickness, mean: Inner Upper Quadrant; for Implant fibrous capsule OLQ thickness, mean: Outer Lower Quadrant; for Implant fibrous capsule OUQ thickness, mean: Outer Upper Quadrant
Description: It is a pilot, open, prospective, longitudinal and analytical essay in which 17 patients diagnosed with an important breast capsular contracture (Grade III and Grade IV, Baker Scale) were treated with Pirfenidone 600 mg administered orally as sustained-release tablets three times per day (every 8 hours) during six months. A blood sample was taken from each patient in order to determine the genetic markers (TGF-β1). […], three Breast echosonographies were made, one at the beginning, the other at the end of the treatment (6 months) and the last one 6 months after the suspension of Pirfenidone treatment (12 months). Two parameters were evaluated: antero-posterior diameter and capsular thickness in all its quadrants (contrasting thickness measurements with the radiological parameters established by Tomas Stavros, 2006 and the radiological clinical correlation of thickness vs Baker Scale established by Alon Zahavi M D, 2006 for the diagnosis of Capsular Contracture). Free liquid in the capsule was looked for, as well as retraction or rupture signs through 5-12 MHz linear or curve transductors. During 12 months, a Breast Clinical Evaluation was also conducted on a monthly basis using Baker Classification. Deformation, texture through palpation and sensitivity were evaluated. A registration of each evaluation was made with digital photographs. The clinical and radiological changes of each breast were evaluated by a plastic surgeon and a qualified radiologist. The statistical analysis included 20 cases, taking into account that 3 patients presented bilateral capsular contracture of different grade in each breast; a total of 20 breasts were analyzed. Finally, the statistical analysis of the ordinal scale variables was conducted with means and ranges; and for the contrasts, Wilcoxon matched-pairs signed-ranks and Chi^2 were used. With regard to the Ratio Interval variables, the mean and standard deviation were used; and for the contrast, Student's t test for paired samples was used in which a case is compared against another case.

hepatic fibrosis = conditions: patients with hepatic fibrosis; expanded study; cited from earlier work
[7] = test system: fibrosis in the mammary capsule; conditions: administered orally; female rats with silicone implants; cited from earlier work
TGF-β1 [8] = test: TGF-β1 serum levels in animals with chronic hepatic damage by CCl4 (ELISA); format: in vivo; conditions: treated vs not treated
[9] = renal failure patients treated with hemodialysis; cited from earlier work
TGF-β1 [10] = test: TGF-β1 serum levels in female rats with silicone implants in mammary glands (ELISA); format: in vivo; conditions: daily oral regimen during 21 days; extended release formula before conversion into tablets
Description: TGF-β1 serum levels determination in female rats submitted to the placement of silicone implants in mammary glands for inducing contracture development are shown in FIG. 5. The animals were administered a daily regimen of oral Pirfenidone during 21 days. […] TGF-β1 levels were determined through a commercial ELISA kit.

TNF-α [11] = test: TNF-α serum levels in animals with chronic hepatic damage by CCl4 (ELISA); format: in vivo; conditions: treated vs not treated
[12] = Initial (before treatment), 20 cases

Cc1ccc(=O)n(-c2ccccc2)c1 [Pirfenidone, 5-methyl-1-phenyl-2-(1H)-pyridone]
renal damage progression rate ([1]; 2400 mg/1.73 m^2 BSA, phases 1-4 KDIGO): influenced positively
drug side-effects in patients with primary nephropathy [1]: limited to a minimum percentage of patients and disappeared rapidly
effect on proteinuria [1]: beneficial effect
histological damage to the affected kidneys (comparative ultrasonographic changes, beginning vs end of treatment) [1]: detains the histological damage
TGF-β expression [2]: reduces TGF-β expression
development of progressive renal disease [2]: Can prevent the development of progressive renal disease
growth, development and toxic effects in treated animals [2]: grew and developed normally and without toxic effects
proteinuria levels [2]: Reduces proteinuria levels
renal function / collagen accumulation in the renal cortex [2]: Improves renal function reducing collagen accumulation in the renal cortex
urea nitrogen and serum creatinine levels [2]: Reduces urea nitrogen and serum creatinine levels
time till which bioavailability is prolonged [3]: 12 h
delay of renal function impairment [4]: favorable results
action on TNF-α (TNF-α serum levels, FIG. 6) (TNF-α [5]): extremely potent and selective TNF-α inhibiting action
change of breast capsular contracture grade, all cases ([6]; 600 mg SR tablets orally three times per day, six months, 20 cases): reduction of breast capsular contracture grade
cases with relapse of capsular contracture (WCSECC to grade III) ([6]; 6-month follow up after Pirfenidone discontinuation, 1 case grade IV, use of steroids and excessive exercise): 5%
number of cases WCSECC (Without Clinical or Sonographic Evidence of Capsular Contracture) ([6]; 6 Months (end of treatment, 600 mg SR tablets three times per day), 20 cases): 10 cases
number of cases with contracture grade I (Baker Scale) ([6]; 6 Months, 20 cases): 5 cases
number of cases with contracture grade III (Baker Scale) ([6]; 6 Months, 20 cases): 5 cases
patients with side effects (stomach aches, fatigue, skin dermatosis, photosensitivity) ([6]; 6 of 17 patients): 35%
mean duration of side effects ([6]; 6 patients with side effects): 10.8 days
BAKER SCALE Mean ([6]; 12-month follow-up, n = 20, P 0.0001 vs beginning): 0.5
number of cases WCSECC ([6]; 12 months (6 months after suspension of treatment), 20 cases): 14 cases
number of cases with contracture grade II (Baker Scale) ([6]; 12 months, 20 cases): 1 cases
number of cases with contracture grade III (Baker Scale) ([6]; 12 months, 20 cases): 5 cases
BAKER SCALE Mean (Range) ([6]; Beginning of the study, n = 20): 4 (3-4)
Implant fibrous capsule ILQ thickness, mean ([6]; Beginning): 1.86 centimeters
Implant fibrous capsule IUQ thickness, mean ([6]; Beginning): 1.6 centimeters
Implant fibrous capsule OLQ thickness, mean ([6]; Beginning): 1.775 centimeters
Implant fibrous capsule OUQ thickness, mean ([6]; Beginning): 1.505 centimeters
Implant fibrous capsule ILQ thickness, mean ([6]; End): 1.115 centimeters
Implant fibrous capsule IUQ thickness, mean ([6]; End): 1.19 centimeters
Implant fibrous capsule OLQ thickness, mean ([6]; End): 1.185 centimeters
Implant fibrous capsule OUQ thickness, mean ([6]; End): 1.18 centimeters
number of cases with contracture grade III (Baker Scale) [6, 12]: 9 cases
number of cases with contracture grade IV (Baker Scale) [6, 12]: 11 cases
breast capsular contracture evolution, Baker scale (FIG. 1) ([6]; all the cases, after PFD administration): important improvement
Initial AP Diameter of the breast implant, mean ([6]; echographically measured at the beginning (before treatment)): 7.57 centimeters
AP Diameter at 12 months, mean ([6]; echographically measured, P = N.S. vs 6 months): 6.085 centimeters
AP Diameter at 6 months, mean ([6]; echographically measured, P ≤ .001 vs beginning): 6.425 centimeters
cases with gradual reduction of antero-posterior diameter (APD) and capsule thickness ([6]; echographies at 6 and 12 months, 19 cases): 95%
cases showing retraction data and light subcapsular liquid ([6]; end of the study, group that passed from grade IV to grade III, two cases): 10%
contracture state of left breast, single patient (FIG. 2) ([6]; initially grade III, after six-month PFD administration): Not Detectable by Ultrasound or Clinical Examination
contracture state of both breasts, single patient (FIG. 3) ([6]; initially grade IV, end of the protocol): Capsular Contracture Not Detectable by Ultrasound or Clinical Examination
cases reduced from grade IV to grade II ([6]; of 20 cases (1 case)): 5%
cases initially grade IV that concluded WCSECC ([6]; of 20 cases (5 cases)): 25%
cases reduced from grade IV to grade III ([6]; of 20 cases (5 cases)): 25%
cases initially grade III that concluded WCSECC ([6]; of 20 cases (9 cases)): 45%
cases concluded Without Clinical or Sonographic Evidence of Capsular Contracture (WCSECC) ([6]; of 20 cases (n=14)): 70%
cases of relapse (FIG. 1) ([6]; six-month follow-up): one
relapse, single patient (FIG. 2) ([6]; six-month follow-up): lack of relapse
effects evidenced through hepatic biopsy (hepatic fibrosis): beneficial effects
development of fibrosis in the mammary capsule [7]: prevents the development of the characteristic fibrosis
TGF-β1 serum level (FIG. 5) (TGF-β1 [8]): lower TGF-β1 serum level
need to adjust dose in patients with renal damage (pharmacokinetics) [9]: not necessary to adjust the pirfenidone dose
tolerability in patients with Terminal Chronic Renal Failure (TCRF) [9]: well tolerated
action on TGF-β production (TGF-β1 serum levels, FIG. 5) (TGF-β1 [10]): extremely potent and selective inhibiting action
TNF-α serum level (FIG. 6) (TNF-α [11]): lower TNF-α serum level
